Measured values: ChEMBL document CHEMBL1909606, “Polarization in the structures of uracil and thiouracils: Implication for binding with orotidine 5'-monophosphate decarboxylase” (Bioorg Med Chem Lett, 2011)

Test: Binding affinity to orotidine-5'-monophosphate decarboxylase relative to uracil

Row | relative binding affinity (RBA) | SMILES
1 | 29 | O=c1cc[nH]c(=S)[nH]1
2 | 61 | Oc1nccc(S)n1
